Source: patent US20240174690A1, “ANNULATED 2-AMINO-3-CYANO THIOPHENES AND DERIVATIVES FOR THE TREATMENT OF CANCER” (BOEHRINGER INGELHEIM INTERNATIONAL GMBH, priority 2021, published 2024)

Legend:
[1] = Caco-2 assay (permeability PappAB, PappBA, efflux ratio); assay type: in vitro ADME; conditions: human, Caco-2, 10 μM test compound, pH 7.4; for Papp A→B at 90 min, 10 μM: apical to basolateral; for efflux ratio at 90 min, 10 μM: efflux ratio PappBA/PappAB, read-out: Caco ER
Outline: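 Confluent Caco-2 monolayers on filter supports, 0.25% BSA in both donor and receiver buffer; transport measured a-b and b-a. After 25-30 min preincubation at 37 °C, samples at 0, 30, 60, 90 min quantified by HPLC/MS/MS. Papp from receiver amount per time, filter area and initial donor concentration; efflux ratio = PappBA/PappAB.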

[2] = system: KRAS G12C-dependent Ba/F3 cells; assay: Ba/F3 proliferation assay, KRAS G12C; assay type: cell-based; conditions: AlamarBlue
Outline: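 Ba/F3 cells retrovirally transduced with KRAS G12 mutants, puromycin-selected and grown without IL-3, so proliferation depends on the mutant KRAS. Compounds tested in technical duplicates; viability read by AlamarBlue fluorescence, with curve fitting for potency.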

SMILES | Papp A→B at 90 min, 10 μM [1] | efflux ratio at 90 min, 10 μM [1] | IC50 ([2]; Mus musculus, BaF3, 72 h) | IC50 ([2]; 72 h)
C[C@H](Oc1cc(N2CCNC[C@]23CCOC3)nc(-c2onc3c2CCC[C@@]32CCCc3sc(N)c(C#N)c32)n1)[C@@H]1CCCN1C [I-12] | 0.5 ×10⁻⁶ cm/s | 70.2 | 224 nM | –
C[C@H](Oc1cc(N2CCNC[C@@]23CCOC3)nc(-c2onc3c2CCC[C@@]32CCCc3sc(N)c(C#N)c32)n1)[C@@H]1CCCN1C [I-13] | 0.4 ×10⁻⁶ cm/s | 49.8 | 1540 nM | –
C[C@H](Oc1cc(-n2cncc3ccnc2-3)nc(-c2onc3c2CCC[C@@]32CCCc3sc(N)c(C#N)c32)n1)[C@@H]1CCCN1C [I-14] | – | 0.8 | 15 nM | –
C[C@H]1CNCCCN1c1nc(-c2onc3c2CCC[C@@]32CCCc3sc(N)c(C#N)c32)cc(C(F)(F)F)n1 [I-15] | – | – | 930 nM | –
C[C@H](Oc1cc(-c2cn(C)nn2)nc(-c2onc3c2CCC[C@@]32CCCc3sc(N)c(C#N)c32)n1)[C@@H]1CCCN1C [I-16] | – | – | 21 nM | –
CO[C@@H]1C[C@@H]([C@H](C)Oc2cc(-c3cnn(C)n3)nc(-c3onc4c3CCC[C@@]43CCCc4sc(N)c(C#N)c43)n2)N(C)C1 [I-17] | – | – | 40 nM | –
C[C@H](Oc1cc(-n2cncn2)nc(-c2onc3c2CCC[C@@]32CCCc3sc(N)c(C#N)c32)n1)[C@@H]1CCCN1C [I-18] | 17 ×10⁻⁶ cm/s | 1.2 | 11 nM | –
C[C@H](Oc1cc(N2Cc3cnn(C)c3C2)nc(-c2onc3c2CCC[C@@]32CCCc3sc(N)c(C#N)c32)n1)[C@@H]1CCCN1C [I-19] | – | – | 76 nM | –
C[C@H](Oc1cc(-n2cc(-c3cncs3)nn2)nc(-c2noc3c2CCC[C@@]32CCCc3sc(N)c(C#N)c32)n1)[C@@H]1CCCN1C [II-125] | – | 1.3 | 17 nM | –
C[C@H](Oc1cc(-n2cnc(C(=O)N(C)C)c2)nc(-c2noc3c2CCC[C@@]32CCCc3sc(N)c(C#N)c32)n1)[C@@H]1CCCN1C [II-126] | 2 ×10⁻⁶ cm/s | 11 | 32 nM | –
C[C@H](Oc1cc(-c2ccn([C@H]3CCOC3)n2)nc(-c2noc3c2CCC[C@@]32CCCc3sc(N)c(C#N)c32)n1)[C@@H]1CCCN1C [II-127] | 5.9 ×10⁻⁶ cm/s | 4.1 | 13 nM | –
C[C@H](Oc1cc(-c2ccn(Cc3ncco3)n2)nc(-c2noc3c2CCC[C@@]32CCCc3sc(N)c(C#N)c32)n1)[C@@H]1CCCN1C [II-128] | – | – | 10 nM | –
C[C@H](Oc1cc(-c2ccn(C[C@H]3CCOC3)n2)nc(-c2noc3c2CCC[C@@]32CCCc3sc(N)c(C#N)c32)n1)[C@@H]1CCCN1C [II-129] | 4.2 ×10⁻⁶ cm/s | 5.2 | 11 nM | –
C[C@H](Oc1cc(-n2ccc(-c3cnccn3)n2)nc(-c2noc3c2CCC[C@@]32CCCc3sc(N)c(C#N)c32)n1)[C@@H]1CCCN1C [II-130] | – | 1.4 | 6 nM | –
C[C@H](Oc1cc(-n2nccc2-c2ccncc2)nc(-c2noc3c2CCC[C@@]32CCCc3sc(N)c(C#N)c32)n1)[C@@H]1CCCN1C [II-131] | – | 0.9 | 16 nM | –
C[C@H](Oc1cc(-c2cccc(C(N)=O)c2)nc(-c2noc3c2CCC[C@@]32CCCc3sc(N)c(C#N)c32)n1)[C@@H]1CCCN1C [II-133] | – | – | 33 nM | –
C[C@H]1CNCCCN1c1cc(-c2ccn(C)n2)nc(-c2noc3c2CCC[C@@]32CCCc3sc(N)c(C#N)c32)n1 [II-140] | – | – | 1020 nM | –
C[C@H]1CNCCCN1c1cc(-n2ccnc2)nc(-c2noc3c2CCC[C@@]32CCCc3sc(N)c(C#N)c32)n1 [II-142] | – | – | 2200 nM | –
C[C@H](Oc1cc(-n2cc3c(n2)CNC3)nc(-c2noc3c2CCC[C@@]32CCCc3sc(N)c(C#N)c32)n1)[C@@H]1C[C@@H](F)CN1C [II-154] | – | – | 245 nM | –

SMILES | Papp A→B at 90 min, 10 μM [1] | efflux ratio at 90 min, 10 μM [1] | IC50 ([2]; Mus musculus, BaF3, 72 h) | IC50 ([2]; 72 h)
COc1c(O[C@@H](C)[C@@H]2CCCN2C)nc(-c2noc3c2CCC[C@@]32CCCc3sc(N)c(C#N)c32)nc1-n1ccc(C(N)=O)n1 [II-159] | – | – | 147 nM | –
C[C@H](Oc1cc(N2CC3COCC(C2)N3)nc(-c2noc3c2CCC[C@@]32CCCc3sc(N)c(C#N)c32)n1)[C@@H]1CCCN1C [II-160] | – | – | 1720 nM | –
C[C@H](Oc1cc([C@H]2CCNC2)nc(-c2noc3c2CCC[C@@]32CCCc3sc(N)c(C#N)c32)n1)[C@@H]1CCCN1C [II-163] | – | – | 373 nM | –
CC(C)[C@@H]1CN(c2cc(O[C@@H](C)[C@@H]3CCCN3C)nc(-c3noc4c3CCC[C@@]43CCCc4sc(N)c(C#N)c43)n2)CCN1 [II-166] | – | – | 386 nM | –
C[C@H](Oc1nc(-c2noc3c2CCC[C@@]32CCCc3sc(N)c(C#N)c32)nc(N2CCN(C)C3(CC3)C2)c1Cl)[C@@H]1C[C@@H](F)CN1C [II-176] | – | – | 1310 nM | –
CC(=O)N1CCN(c2cc(O[C@@H](C)[C@@H]3CCCN3C)nc(-c3noc4c3CCC[C@@]43CCCc4sc(N)c(C#N)c43)n2)CC12CC2 [II-178] | – | – | 31 nM | –
CO[C@H]1CCN(C)[C@@H]1[C@H](C)Oc1cc(-n2ccc(CC(=O)NC(C)C)n2)nc(-c2noc3c2CCC[C@@]32CCCc3sc(N)c(C#N)c32)n1 [II-183] | – | – | 2 nM | –
CCN1CCN(c2cc(O[C@@H](C)[C@@H]3C[C@@H](F)CN3C)nc(-c3noc4c3CCC[C@@]43CCCc4sc(N)c(C#N)c43)n2)CC12CC2 [II-185] | – | – | 305 nM | –
C[C@H](Oc1cc(-n2ccc(C(=O)N[C@H]3CCOC3)n2)nc(-c2noc3c2CCC[C@@]32CCCc3sc(N)c(C#N)c32)n1)[C@@H]1CCCN1C [II-193] | – | – | – | 2 nM
CO[C@H]1CCN(C)[C@@H]1[C@H](C)Oc1cc(-n2ccc(C(=O)N[C@@H](C)c3ccccn3)n2)nc(-c2noc3c2CCC[C@@]32CCCc3sc(N)c(C#N)c32)n1 [II-196] | – | – | 1 nM | –
CO[C@H]1CCN(C)[C@@H]1[C@H](C)Oc1cc(-n2ccc(C(=O)N[C@@H]3CCOC3)n2)nc(-c2noc3c2CCC[C@@]32CCCc3sc(N)c(C#N)c32)n1 [II-197] | – | – | 2 nM | –
CO[C@H]1CCN(C)[C@@H]1[C@H](C)Oc1cc(-n2ccc(C(=O)N[C@H]3CCOC3)n2)nc(-c2noc3c2CCC[C@@]32CCCc3sc(N)c(C#N)c32)n1 [II-198] | – | – | 1 nM | –
CO[C@H]1CCN(C)[C@@H]1[C@H](C)Oc1cc(-n2ccc(C(=O)N(C)C3COC3)n2)nc(-c2noc3c2CCC[C@@]32CCCc3sc(N)c(C#N)c32)n1 [II-199] | – | – | 3 nM | –
COCCNC(=O)c1ccn(-c2cc(O[C@@H](C)[C@@H]3[C@@H](OC)CCN3C)nc(-c3noc4c3CCC[C@@]43CCCc4sc(N)c(C#N)c43)n2)n1 [II-200] | – | – | 1 nM | –
C[C@H](Oc1cc(-n2cc3ccn([C@@H]4CCOC4)c(=O)c3n2)nc(-c2noc3c2CCC[C@@]32CCCc3sc(N)c(C#N)c32)n1)[C@@H]1CCCN1C [II-203] | – | – | 6 nM | –
C[C@H](Oc1cc(-n2cc3ccn(C[C@H]4CCOC4)c(=O)c3n2)nc(-c2noc3c2CCC[C@@]32CCCc3sc(N)c(C#N)c32)n1)[C@@H]1CCCN1C [II-204] | – | – | 11 nM | –
C[C@H](Oc1cc(-n2cc3ccn([C@@H](C)c4ccccn4)c(=O)c3n2)nc(-c2noc3c2CCC[C@@]32CCCc3sc(N)c(C#N)c32)n1)[C@@H]1CCCN1C [II-205] | – | – | 19 nM | –
[2H]C([2H])([2H])N1C[C@H](F)C[C@H]1[C@H](C)Oc1cc(N2CCN(C([2H])([2H])[2H])C3(CC3)C2)nc(-c2noc3c2CCC[C@@]32CCCc3sc(N)c(C#N)c32)n1 [II-207] | – | – | 283 nM | –
CNC1CCN(c2cc(O[C@@H](C)[C@@H]3CCCN3C)nc(-c3noc4c3CCC[C@@]43CCCc4sc(N)c(C#N)c43)n2)CC1 [II-214] | – | – | 1900 nM | –
